Measurements reported in patent publication US20190328753A1, “COMPOSITIONS AND METHODS FOR TREATING OCULAR DISEASES” (priority 2015, published 2019).
“And” between values parts separate entries of the source, which are not always exact repeats. Equal entries are not always repeated. “Also recorded” adds a separate entry of the source.

Experiments:
Corneal epithelial cells [1] = test: In vitro toxicity / cell morphology in corneal epithelial cells (Example 7); format: cell-based
Procedure: (§1) Corneal epithelial cells were cultured in vitro to about 30% confluence and treated with various dilutions of a 0.025 mg/mL spironolactone eye drop formulation (i.e. 50×, 100×, 500×, 1000×, and 5000×, corresponding to 0.0005 mg/ml, 0.00025 mg/ml, 0.00005 mg/ml, 0.000025 mg/ml, and 0.000005 mg/ml). The cell medium with spironolactone was changed every two days. On the seventh day, the cells were stained for lipids with Oil Red O.
Toxicity to cells was also taken into account. Toxicity in the context of this disclosure refers to any amount of cell death upon exposure to the composition. Little to no toxicity or relatively no toxicity refers to some amount of cell death to no cell death upon exposure to the composition. Alternatively or additionally, the morphology should look phenotypically normal for the cells. Toxicity can be measured quantitatively or qualitatively, in vivo or in vitro. Standard assays, such as an LDH (lactate dehydrogenase) assay, can be used to quantify toxicity of the compositions and to determine a TC50 concentration, i.e., a concentration that results in cell death for 50% of the cells upon exposure of the cells to that concentration. […] As such, a concentration of 0.025 mg/cc or lower appears to be safe. […] Compositions with lower amounts of active agent (e.g., 0.0000025 mg/cc) may be useful for maintaining a patient's condition, without subjecting the patient to long-term toxicity, for example, once the patient has been stabilized by treatment for some amount of time with a higher concentration.

[2] = according to the literature; cited from earlier work
[3] = system: patients with moderate to severe meibomian gland disease; test: Pilot study (Example 3): topical spironolactone ophthalmic suspension in MGD, retrospective pre-post
ELOVL4 gene expression = test: RT-PCR of ELOVL4 gene expression in HTCE cells (Example 9); format: cell-based, Human; conditions: 7th day; for ELOVL4 gene expression, induction: normalized
Procedure: HTCE cells were cultured in 6 well plates and grown to about 30% confluence. The cells were then treated with different dilutions of a 0.025 mg/ml Spironolactone eye drop formulation (i.e. 50×, 100×, 500×, 1000×, and 5000×, corresponding to 0.0005 mg/ml, 0.00025 mg/ml, 0.00005 mg/ml, 0.000025 mg/ml, and 0.000005 mg/ml). The medium with different concentrations of Spironolactone was changed every 2 days. On the 7th day, the cells were collected, and the RNA was extracted and subject to RT-PCR analysis for gene expression of ELOVL4, an enzyme involved in the biosynthesis of fatty acids (particularly very long chain fatty acids (VLCFAs)).

Corneal epithelial cells [4] = test: Lipid production in corneal epithelial cells, dilutions of 0.025 mg/ml formulation, Oil Red O (Example 7); format: cell-based; conditions: seventh day
Procedure: as §1

[5] = 1000× dilution (0.000025 mg/ml)
[6] = 5000× dilution (0.000005 mg/ml)
[7] = post-treatment, n=20, lissamine green, scale 0-3
[8] = post-treatment, n=20, scale 0-4
[9] = pre vs post-treatment, n=20, positive = score decrease, scale 0-4
[10] = pre-post change, n=20, scale 0-3
[11] = pre-post change, n=20, scale 0-4

Compound: CC(=O)SC1CC2=CC(=O)CCC2(C)C2CCC3(C)C(CCC34CCC(=O)O4)C12 (stereo not drawn) [spironolactone, 7α-acetylthio-3-oxo-17α-pregn-4-ene-21,17-carbolactone]
- in vitro toxicity (Corneal epithelial cells [1]; 0.025 mg/ml): some in vitro toxicity
- in vitro toxicity / cell morphology (Corneal epithelial cells [1]; 100× dilution (0.00025 mg/ml)): non confluence and some relative toxicity
- in vitro toxicity / cell morphology (Corneal epithelial cells [1]; 500× dilution (0.00005 mg/ml)): confluent nontoxic cell morphology
- in vitro toxicity / cell morphology (Corneal epithelial cells [1]; [5]): no in vitro toxicity; also recorded: confluent nontoxic cell morphology
- in vitro toxicity / cell morphology (Corneal epithelial cells [1]; [6]): confluent nontoxic cell morphology
- solubility in water [2]: practically insoluble in water
- side effects after topical administration ([3]; patients of the pilot study): A small percentage of the patients reported a mild temporary burning sensation in the eye
- Vision OD, Mean ([3]; post-treatment, n = 19): 0.069±0.051 log Mar units and 0.069 log Mar units
- Schirmer's OD, Mean ([3]; post-treatment, n=20): 13.6 mm
- Schirmer's OS, Mean ([3]; post-treatment, n=20): 14.6 mm
- Vision OS, Mean ([3]; post-treatment, n=20): 0.063±0.032 log Mar units and 0.063 log Mar units
- Conjunctival OD (Nasal), Mean [3, 7]: 0.83±0.189 and 0.83
- Conjunctival OD (Temporal), Mean [3, 7]: 0.55±0.181 and 0.55
- Conjunctival OS (Nasal), Mean [3, 7]: 0.60±0.148 and 0.60
- Conjunctival OS (Temporal), Mean [3, 7]: 0.40±0.134 and 0.40
- Keratitis OD Corneal, Mean [3, 7]: 0.050±0.050 and 0.050
- Keratitis OS Corneal, Mean [3, 7]: 0.20±0.156 and 0.20
- Anterior Blepharitis, Mean [3, 8]: 0.38±0.114 and 0.38
- Obstruction, Mean [3, 8]: 1.58±0.236 and 1.58
- Turbidity, Mean [3, 8]: 2.3±0.193 and 2.3
- Vascularity, Mean [3, 8]: 1.48±0.253 and 1.48
- Zone A, Mean [3, 8]: 3.125±0.188 and 3.125
- Subjective Global Assessment, Mean ([3]; post-treatment, n=20, scale 0-10): 4.6±0.534 and 4.6
- improvement of turbidity score, percent ([3]; pre vs post-treatment, n=20): 22.03%
- improvement of zone A score, percent ([3]; pre vs post-treatment, n=20): 11.97%
- mean improvement in anterior blepharitis score [3, 9]: 0.175±0.230
- mean improvement in obstruction score [3, 9]: 0.40±0.222
- mean improvement in turbidity score [3, 9]: 0.65±0.141
- mean improvement in vascularity score [3, 9]: 0.25±0.194
- mean improvement in zone A score [3, 9]: 0.425±0.186
- improvement in self-reported global assessment scores ([3]; pre vs post-treatment, n=20, positive = score decrease, scale 0-10): 1.4±0.597
- Vision OD (log Mar units), Change % ([3]; pre-post change, n = 19): 213.64%
- Vision OD, mean change ([3]; pre-post change, n = 19): 0.047±0.043 log Mar units and 0.047 log Mar units
- Anterior Blepharitis, Change % ([3]; pre-post change, n=20): −31.82%
- Conjunctival OD (Nasal), Change % ([3]; pre-post change, n=20): −20.00%
- Conjunctival OD (Temporal), Change % ([3]; pre-post change, n=20): −29.49%
- Conjunctival OS (Nasal), Change % ([3]; pre-post change, n=20): −36.84%
- Conjunctival OS (Temporal), Change % ([3]; pre-post change, n=20): 20.00%
- Keratitis OD (Corneal), Change % ([3]; pre-post change, n=20): −50.00%
- Keratitis OS (Corneal), Change % ([3]; pre-post change, n=20): 0.00%
- Obstruction, Change % ([3]; pre-post change, n=20): −20.25%
- Schirmer's OD (mm), Change % ([3]; pre-post change, n=20): −3.71%
- Schirmer's OD, mean change ([3]; pre-post change, n=20): −0.525±1.496 mm and −0.525 mm
- Schirmer's OS (mm), Change % ([3]; pre-post change, n=20): 1.75%
- Schirmer's OS, mean change ([3]; pre-post change, n=20): 0.250±1.008 mm and 0.25 mm
- Subjective Global Assessment, Change % ([3]; pre-post change, n=20): −23.33%
- Turbidity, Change % ([3]; pre-post change, n=20): −22.03%
- Vascularity, Change % ([3]; pre-post change, n=20): −14.45%
- Vision OS (log Mar units), Change % ([3]; pre-post change, n=20): −7.20%
- Zone A, Change % ([3]; pre-post change, n=20): −11.97%
- Conjunctival OD (Nasal), Mean Change [3, 10]: −0.20±0.142 and −0.20
- Conjunctival OD (Temporal), Mean Change [3, 10]: −0.23±0.187 and −0.23
- Conjunctival OS (Nasal), Mean Change [3, 10]: −0.35±0.146 and −0.35
- Conjunctival OS (Temporal), Mean Change [3, 10]: 0.10±0.204 and 0.10
- Keratitis OD Corneal, mean change [3, 10]: −0.05±0.114 and −0.05
- Keratitis OS Corneal, mean change [3, 10]: 0.00±0.126 and 0.00
- Anterior Blepharitis, mean change [3, 11]: −0.175
- Obstruction, mean change [3, 11]: −0.4
- Turbidity, mean change [3, 11]: −0.65
- Vascularity, mean change [3, 11]: −0.25
- Zone A, mean change [3, 11]: −0.425
- Subjective Global Assessment, mean change ([3]; pre-post change, n=20, scale 0-10): −1.4
- ELOVL4 gene expression, induction (ELOVL4 gene expression; 0.00025 mg/ml (100× dilution)): approximately 2 fold
- ELOVL4 gene expression, induction (ELOVL4 gene expression; 0.0005 mg/ml (50× dilution)): approximately 4.5 fold
- ELOVL4 gene expression (ELOVL4 gene expression; remaining treatment groups (0.00005, 0.000025, 0.000005 mg/ml)): no change relative to control
- lipid production (Oil Red O) (Corneal epithelial cells [4]; [5]): lipid production was still present
- lipid production (Oil Red O) (Corneal epithelial cells [4]; [6]): no lipid is being formed
